Structures can show the parent of a compound that is named as a salt.
Legend:
[1] = tested on: Western diet fed Sprague Dawley rats; experiment: Plasma triglycerides (fed and fasted) in Western diet fed Sprague Dawley rats; format: in vivo, rat; details: 4 hour fast
Procedure: (§1) A randomized, vehicle-controlled, 8-parallel arm study was conducted in male Sprague-Dawley rats (Charles River (Boston, MA)) to obtain circulating and hepatic TG levels. Standard laboratory conditions were used to house 96 rats (˜200 g); they were double housed and kept under 12:12-hour reverse light-dark schedule (lights off at 8:00 AM). Rats were randomized into chow or Western diet groups and dose groups upon arrival and were given a 14-day lead-in period on either standard rat chow or Western diet prior to the start of the study. Standard Laboratory Rodent chow diet, 5053, was from LabDiet (PMI, St Louis, Missouri). Western Diet, D12079Bi, was from Research Diets (New Brunswick, NJ).
(§2) For these studies, vehicle was prepared to make a 0.5% (wt/volume) of methyl cellulose (MC, Sigma Aldrich; 274429) in deionized water.
Fed plasma analytes: Blood for determining fed plasma TG concentrations was collected 2 hours post dose (2 hours into the dark cycle) via lateral tail vein, transferred to BD Microtainer tubes coated with dipotassium ethylenediaminetetraacetic acid (K2EDTA) (PN365974), and centrifuged at 4° C. The resulting plasma samples were then analyzed on a Siemens Chemistry XPT clinical analyzer (Malven, PA) using Siemens triglycerides_2 assay reagents (ref 10335892).
Fasted plasma analytes: Blood for determining fasted plasma TG was collected after a 4 hour fast, 2 hours post-dose (2 hours into the dark cycle) via lateral tail vein, transferred to BD Microtainer tubes coated with K2EDTA (PN365974), and centrifuged at 4° C. The resulting plasma samples were then analyzed on a Siemens Chemistry XPT clinical analyzer (Malven, PA) using Siemens triglycerides 2 assay reagents (ref 10335892).

[2] = tested on: Western diet fed Sprague Dawley rats; experiment: Hepatic triglyceride (steatosis) in Western diet fed rats; format: in vivo, rat; details: or both, Day 28
Procedure: as §1, §2
(§3) On the last day of the study (Day 28), rats were sacrificed for tissue collection after a 4 hour fast, 2 hours post-dose: two hours post-dose, blood for determining plasma analytes was collected via lateral tail vein and then the animals were sacrificed by CO2 asphyxiation. Blood was transferred to BD Microtainer tubes coated with K2EDTA (PN365974), centrifuged at 4° C. and the plasma transferred to a 96-well microtitre plate and stored at −20° C. Livers were rapidly removed, freeze-clamped in a Wollenberg clamp pre-cooled in liquid N2 individually wrapped in aluminum foil and subsequently stored at −80° C.
Tissue pulverization: Frozen livers were rapidly pulverized on an aluminum block cooled in liquid N2, ensuring the tissue remained frozen throughout the pulverization. The pulverized tissues were transferred and stored in 7 mL polypropylene conical tubes at −80° C. until analysis.
Extraction for hepatic triglyceride: Approximately 50 to 100 mg of pulverized tissue was added to a 2 mL lysing matrix D tube (MP Bio) containing 800 μL ice cold 1:1 CHCl3:MEOH. Samples were immediately extracted at 4° C. using Qiagen Tissue Lyser II (Qiagen Cat No. 85300) for 4 minutes at 30 Hz. The homogenate was then transferred to 13×100 mm glass tubes and placed on ice. The lysis tubes were then rinsed with 800 μL of 1:1 CHCl3:MeOH, vortexed for 30 seconds and added to the 13×100 mm glass tubes. While on ice, 2.4 ml of 100% CHCl3 was added to all glass vials to bring the ratio of CHCl3:MeOH to 4:2. Samples were then placed in the −20° C. freezer overnight. On the following day, 1.75 mL 1M KCl H2O was added to bring the ratio to 4:2:1.75 ratio CHCl3:MeOH:H2O. Samples were then vortexed for 30 seconds and centrifuged at 1500 rpm×15 min., at 4° C. After centrifugation, the organic phase was transferred to a fresh 13×100 mm extraction tube, dried down at 37° C. under N2 and re-suspended in 750 μL CHCl3. […]

SREBP-1 = experiment: Nuclear SREBP-1 localization in liver of Western diet fed rats (Western blot); format: in vivo, rat; details: high dose monotherapy (A 10 mg/kg QD; D 30 mg/kg BID); pooled liver samples
Procedure: as §1, with “NJ). […]” for “NJ).”
Nuclear and Membrane fractions were prepared by ultracentrifugation using standard methods from a portion of the pulverized liver samples, that were pooled per treatment group. Samples from the nuclear extract and the membrane fractions were analyzed by Western blotting for SREBP1. […] Nuclear SREBP1 levels were quantified using relative units and normalized to Histone 2B to control for sample loss during the nuclear fractionation and gel loading.

[3] = tested on: ACC1, FASN, SCD1, PCSK9 and SREBP-1c; experiment: Hepatic lipogenic gene expression in Western diet fed rats (qPCR); format: in vivo, rat; details: Compound A: ACC1, FASN (high dose only), SCD, but not PCSK9 and SREBP1
Procedure: as §1
as §3, with “Livers were rapidly removed, freeze-clamped in a Wollenberg clamp pre-cooled in liquid N2 individually wrapped in aluminum foil and subsequently stored at −80° C.” left out
Another portion of the pulverized liver was processed and analyzed for lipogenic gene expression. Rat taqman probes against ACC1, FASN, SCD1, PCSK9 and SREBP-1c were all assessed using Actb as housekeeping gene on qPCR.

αSMA and COL1A1 = experiment: Hepatic fibrogenesis gene expression in CDAHFD fed rats (qPCR); format: in vivo, rat; details: A 5 mg/kg, D 30 mg/kg twice daily, 6 weeks
Source text: Standard laboratory conditions were used to house 60 rats (˜200 g); they were double housed and kept under 12:12-hour reverse light-dark schedule (lights off at 8:00 AM). Rats were fed choline deficient and high fat diet (CDAHFD) beginning 6-weeks prior to initiation of the study. […] Animals (n=12) remaining on normal chow throughout the study and administered twice-daily vehicle were used as a control group. Blood samples were collected prior to starting compound administration and 3- and 6-week post compound administration for the assessment of circulating markers. Shearwave elastography (Aixplorer Ultimate imager, Supersoinc imagine) measurements were made at Week −3, Week 0 (prior to 1st dose), Week 3 and Week 6 to assess inflammation and fibrosis progression over time. Histology was assessed following 6-weeks of drug administration which corresponded to 12 weeks on the CDAHFD. Results are provided as an average of animals per each dosing group.
Following the 12-weeks on CDAHFD, the animals were sacrificed by CO2 asphyxiation. The right lateral, medial and left lateral lobes of the liver were harvested. Sections were taken from the left lateral, right medial and right lateral lobes and fixed in formalin and processed to paraffin blocks per animal. One section of left lateral lobe per animal was cryopreserved in optimal cutting temperature (OCT) compound. The remainder of the liver from each animal was frozen and rapidly pulverized on an aluminum block cooled in liquid N2, ensuring the tissue remained frozen throughout the pulverization. The pulverized tissue was transferred and stored at −80° C. until analysis. A portion of the pulverized liver sample from each animal was processed and analyzed for gene expression markers of fibrogenesis. Rat taqman probes against αSMA and COL1A1 were all assessed using Actb as housekeeping gene on qPCR.

[4] = Thermodynamic stability of crystalline forms versus water activity; format: physicochemical; details: ambient temperature; about 0.2 = 20% RH
[5] = high dose: A 10 mg/kg QD, D 30 mg/kg BID
[6] = low dose: A 1 mg/kg QD, D 5 mg/kg BID

SMILES | increase in fasted plasma TG, relative to vehicle administered Western diet fed rats ([1]; high dose: Compound A 10 mg/kg QD monotherapy) [fold] | increase in fasted plasma TG, relative to vehicle administered Western diet fed rats ([1]; low dose: Compound A 1 mg/kg QD monotherapy) [fold] | reduction in steatosis (hepatic triglyceride), relative to vehicle administered Western diet fed rats [2, 5] [%] | reduction in steatosis (hepatic triglyceride), relative to vehicle administered Western diet fed rats [2, 6] [%] | nuclear SREBP-1 localization relative to vehicle treated Western diet fed rats (SREBP-1) | hepatic lipogenic gene expression (ACC1, FASN, SCD1, SREBP-1c, PCSK9) relative to Western diet fed vehicle treated animals [3] | hepatic COL1A1 gene expression (αSMA and COL1A1) | hepatic αSMA gene expression (αSMA and COL1A1) | reduction of fasted plasma TG, relative to vehicle administered Western diet fed rats ([1]; high dose: Compound D 30 mg/kg BID monotherapy) [%] | reduction of fasted plasma TG, relative to vehicle administered Western diet fed rats ([1]; low dose: Compound D 5 mg/kg BID monotherapy) [%] | water activity at which the form is thermodynamically stable [4]
COc1cc(C(=O)N2CCC3(CC2)CC(=O)c2c(cnn2C(C)C)C3)cc(-c2ccc(C(=O)O)cc2)n1 [Compound A, 4-(4-(1-isopropyl-7-oxo-1,4,6,7-tetrahydrospiro[indazole-5,4′-piperidine]-1′-carbonyl)-6-methoxypyridin-2-yl)benzoic acid] | 1.7 | 2.4 | 53 | 36 | increased nuclear localization of SREBP-1 | trended to further increase | reduced hepatic αSMA and COL1A1 gene expression | reduced hepatic αSMA and COL1A1 gene expression |  |  | 
CCOc1cccnc1Oc1cncc(-c2ncc(C(=O)N[C@H]3CCOC3)cn2)c1 [Compound D, (S)-2-(5-((3-ethoxypyridin-2-yl)oxy)pyridin-3-yl)-N-(tetrahydrofuran-3-yl)pyrimidine-5-carboxamide] |  |  | 30 | 25 | reduced SREBP-1 nuclear localization | decreased expression of all of the lipogenic genes | reduced hepatic αSMA and COL1A1 gene expression | reduced hepatic αSMA and COL1A1 gene expression | 35 | 20 | 
COc1cc(C(=O)N2CCC3(CC2)CC(=O)c2c(cnn2C(C)C)C3)cc(-c2ccc(C(=O)O)cc2)n1 [Form 1 of Compound A, 4-(4-(1-isopropyl-7-oxo-1,4,6,7-tetrahydrospiro[indazole-5,4′-piperidine]-1′-carbonyl)-6-methoxypyridin-2-yl)benzoic acid anhydrous tris salt] |  |  |  |  |  |  |  |  |  |  | < 0.2
COc1cc(C(=O)N2CCC3(CC2)CC(=O)c2c(cnn2C(C)C)C3)cc(-c2ccc(C(=O)O)cc2)n1 [Form 2 of Compound A] |  |  |  |  |  |  |  |  |  |  | > 0.2

From US12472180B2, “Combinations for treatment of NAFLD/NASH and related diseases” (Pfizer Inc., priority 2020, dated 2025)
